The record followed here is patent publication US20260078120A1, “SUBSTITUTED PYRIDOPYRIMIDINONES” (MIRATI THERAPEUTICS, INC., priority 2022, published 2026).

Structures are written as SMILES.

For test [1], the system named is T47D (PI3Kα H1047R mutant) cells. The test is described as follows: CellTiter-Glo 2.0 luminescent cell viability assay, 72 hours, T47D cells. In kind it is cell-based. Conditions: Homo sapiens, T47D, 72 h, T47D (PI3Kα H1047R mutant) cells, CellTiter-Glo, approximately 72 hours; read-out: T47D (H1047R mutant) Viability IC50. The procedure, abridged: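 Cells seeded at 1000 per well overnight were dosed with a 10-concentration, 1:4 series starting at 10 µM and incubated ~72 h at 37° C. Viability was read by CellTiter-Glo 2.0 luminescence after 30 min at room temperature. IC50 came from four-parameter fits of percent vehicle control.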
In general terms: In ATP-based viability assays light output follows the ATP content of the culture.

The subject of test [2] is SKBR3 (PI3Kα wild type) cells. The test is described as follows: CellTiter-Glo 2.0 luminescent cell viability assay, 72 hours, SKBR3 cells. It counts as cell-based. Conditions: Homo sapiens, SK-BR-3, 72 h, SKBR3 (PI3Kα wild type) cells, CellTiter-Glo, approximately 72 hours; read-out: SKBR3 (WT) Viability IC50. The procedure, abridged: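 Viability measured via CTG luminescence following roughly 72 hours of compound exposure at 37° C. Dosing used a 10 um starting concentration diluted 1:4 over 10 points; percent-of-vehicle data fitted with a variable-slope four-parameter model for IC50.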

One may read the IC50 as the concentration at which inhibition is half-maximal.

As for `Cc1cc([C@@H](C)Nc2ccccc2C(=O)O)c2nc(N3CCC(C)(C#N)CC3)c(C)c(=O)n2c1` [Example 11-69, (R)-2-((1-(2-(4-cyano-4-methylpiperidin-1-yl)-3,7-dimethyl-4-oxo-4H-pyrido[1,2-a]pyrimidin-9-yl)ethyl)amino)benzoic acid], the IC50 in test [1] is 168 nM; in test [2] it was greater than 10000 nM.

Consider `Cc1cc([C@@H](C)Nc2ccccc2C(=O)O)c2nc(N3CCC(C(F)(F)F)CC3)c(C#N)c(=O)n2c1` [Example 11-70, (R)-2-((1-(3-cyano-7-methyl-4-oxo-2-(4-(trifluoromethyl)piperidin-1-yl)-4H-pyrido[1,2-a]pyrimidin-9-yl)ethyl)amino)benzoic acid], for which the IC50 in test [1] was 268 nM; in test [2] it was greater than 10000 nM.

With `Cc1cc([C@@H](C)Nc2ccccc2C(=O)O)c2nc(N3CCC(C(F)(F)F)CC3)c(C)c(=O)n2c1` [Example 11-71, (R)-2-((1-(3,7-dimethyl-4-oxo-2-(4-(trifluoromethyl)piperidin-1-yl)-4H-pyrido[1,2-a]pyrimidin-9-yl)ethyl)amino)benzoic acid], the IC50 in test [1] was 387 nM; in test [2] it was greater than 10000 nM.

As for `Cc1cc([C@@H](C)Nc2ccccc2C(=O)O)c2nc(N3CCC(C#N)CC3)c(C#N)c(=O)n2c1` [Example 11-72, (R)-2-((1-(3-cyano-2-(4-cyanopiperidin-1-yl)-7-methyl-4-oxo-4H-pyrido[1,2-a]pyrimidin-9-yl)ethyl)amino)benzoic acid], the concentration for half-maximal inhibition (IC50) in test [1] is 441 nM; in test [2], greater than 10000 nM.

For `Cc1cc([C@@H](C)Nc2ccccc2C(=O)O)c2nc(N3CCC(C#N)CC3)c(C)c(=O)n2c1` [Example 11-73, (R)-2-((1-(2-(4-cyanopiperidin-1-yl)-3,7-dimethyl-4-oxo-4H-pyrido[1,2-a]pyrimidin-9-yl)ethyl)amino)benzoic acid], the half-inhibitory concentration (IC50) was 272 nM in test [1] and greater than 10000 nM in test [2].

`Cc1ccc(C#N)c(N2CCN(c3nc4c([C@@H](C)Nc5ccccc5C(=O)O)cc(C)cn4c(=O)c3C)[C@H](C)C2)c1` [Example 11-74, 2-(((R)-1-(2-((R)-4-(2-cyano-5-methylphenyl)-2-methylpiperazin-1-yl)-3,7-dimethyl-4-oxo-4H-pyrido[1,2-a]pyrimidin-9-yl)ethyl)amino)benzoic acid]: the IC50 is 1980 nM in test [1] and greater than 10000 nM in test [2].

In the case of `Cc1ccc(C#N)c(N2CCN(c3nc4c([C@@H](C)Nc5ccccc5C(=O)O)cc(C)cn4c(=O)c3C)[C@@H](C)C2)c1` [Example 11-75, 2-(((R)-1-(2-((S)-4-(2-cyano-5-methylphenyl)-2-methylpiperazin-1-yl)-3,7-dimethyl-4-oxo-4H-pyrido[1,2-a]pyrimidin-9-yl)ethyl)amino)benzoic acid], the IC50 in test [1] is 1570 nM; in test [2], greater than 10000 nM.

Turning to `Cc1cc([C@@H](C)Nc2ccccc2C(=O)O)c2nc(N3CCN(c4ccc(C(F)(F)F)cc4C#N)C[C@H]3C)c(C#N)c(=O)n2c1` [Example 11-76, 2-(((R)-1-(3-cyano-2-((R)-4-(2-cyano-4-(trifluoromethyl)phenyl)-2-methylpiperazin-1-yl)-7-methyl-4-oxo-4H-pyrido[1,2-a]pyrimidin-9-yl)ethyl)amino)benzoic acid], the IC50 was 340 nM in test [1] and greater than 10000 nM in test [2].

For the compound `Cc1cc([C@@H](C)Nc2ccccc2C(=O)O)c2nc(N3CCN(c4ccc(C(F)(F)F)cc4C#N)C[C@@H]3C)c(C#N)c(=O)n2c1` [Example 11-77, 2-(((R)-1-(3-cyano-2-((S)-4-(2-cyano-4-(trifluoromethyl)phenyl)-2-methylpiperazin-1-yl)-7-methyl-4-oxo-4H-pyrido[1,2-a]pyrimidin-9-yl)ethyl)amino)benzoic acid], the figures for the IC50 in test [1] and in test [2] were 552 nM and greater than 10000 nM, respectively.

Consider `Cc1cc([C@@H](C)Nc2ccccc2C(=O)O)c2nc(N3CCN(c4ccc(C(F)(F)F)cc4C#N)CC3C)c(C#N)c(=O)n2c1` (stereo partly drawn) [Example 11-78, 2-(((1R)-1-(3-cyano-2-(4-(2-cyano-4-(trifluoromethyl)phenyl)-2-methylpiperazin-1-yl)-7-methyl-4-oxo-4H-pyrido[1,2-a]pyrimidin-9-yl)ethyl)amino)benzoic acid], for which the half-maximal inhibitory concentration (IC50) in test [1] is 256 nM; in test [2], greater than 10000 nM.

As for `Cc1cc([C@@H](C)Nc2ccccc2C(=O)O)c2nc(N3CCN(c4ccc(C(F)(F)F)cc4C#N)C[C@H]3C)c(C)c(=O)n2c1` [Example 11-79, 2-(((R)-1-(2-((R)-4-(2-cyano-4-(trifluoromethyl)phenyl)-2-methylpiperazin-1-yl)-3,7-dimethyl-4-oxo-4H-pyrido[1,2-a]pyrimidin-9-yl)ethyl)amino)benzoic acid], the IC50 in test [1] was found to be 187 nM; in test [2], 4550 nM.

Turning to `Cc1cc([C@@H](C)Nc2ccccc2C(=O)O)c2nc(N3CCN(c4ccc(C(F)(F)F)cc4C#N)C[C@@H]3C)c(C)c(=O)n2c1` [Example 11-80, 2-(((R)-1-(2-((S)-4-(2-cyano-4-(trifluoromethyl)phenyl)-2-methylpiperazin-1-yl)-3,7-dimethyl-4-oxo-4H-pyrido[1,2-a]pyrimidin-9-yl)ethyl)amino)benzoic acid], the IC50 in test [1] is 330 nM; in test [2] it was greater than 10000 nM.

`Cc1cc([C@@H](C)Nc2ccccc2C(=O)O)c2nc(N3CCN(c4ccc(C(F)(F)F)cc4C#N)CC3C)c(C)c(=O)n2c1` (stereo partly drawn) [Example 11-81, 2-(((1R)-1-(2-(4-(2-cyano-4-(trifluoromethyl)phenyl)-2-methylpiperazin-1-yl)-3,7-dimethyl-4-oxo-4H-pyrido[1,2-a]pyrimidin-9-yl)ethyl)amino)benzoic acid]: the results for the half-maximal inhibitory concentration (IC50) in test [1] and in test [2] were 579 nM and greater than 10000 nM, respectively.

Regarding `Cc1cc([C@@H](C)Nc2ccccc2C(=O)O)c2nc(N3CCN(c4ccccc4C#N)C[C@@H]3C)c(C)c(=O)n2c1` [Example 11-82, 2-(((R)-1-(2-((S)-4-(2-cyanophenyl)-2-methylpiperazin-1-yl)-3,7-dimethyl-4-oxo-4H-pyrido[1,2-a]pyrimidin-9-yl)ethyl)amino)benzoic acid], the half-inhibitory concentration (IC50) in test [1] was 303 nM; in test [2], greater than 10000 nM.

Regarding `Cc1cc([C@@H](C)Nc2ccccc2C(=O)O)c2nc(N3CCN(c4ccccc4C#N)C[C@H]3C)c(C)c(=O)n2c1` [Example 11-83, 2-(((R)-1-(2-((R)-4-(2-cyanophenyl)-2-methylpiperazin-1-yl)-3,7-dimethyl-4-oxo-4H-pyrido[1,2-a]pyrimidin-9-yl)ethyl)amino)benzoic acid], the values for the half-inhibitory concentration (IC50) in test [1] and in test [2] were 157 nM and greater than 10000 nM, respectively.

In the case of `Cc1cc([C@@H](C)Nc2ccccc2C(=O)O)c2nc(N3CCN(c4cccc(C#N)c4)C[C@H]3C)c(C#N)c(=O)n2c1` [Example 11-84, 2-(((R)-1-(3-cyano-2-((R)-4-(3-cyanophenyl)-2-methylpiperazin-1-yl)-7-methyl-4-oxo-4H-pyrido[1,2-a]pyrimidin-9-yl)ethyl)amino)benzoic acid], the IC50 in test [1] was found to be 139 nM; in test [2] it was 952 nM.

Consider `Cc1cc([C@@H](C)Nc2ccccc2C(=O)O)c2nc(N3CCN(c4cccc(C#N)c4)C[C@@H]3C)c(C#N)c(=O)n2c1` [Example 11-85, 2-(((R)-1-(3-cyano-2-((S)-4-(3-cyanophenyl)-2-methylpiperazin-1-yl)-7-methyl-4-oxo-4H-pyrido[1,2-a]pyrimidin-9-yl)ethyl)amino)benzoic acid], for which the half-inhibitory concentration (IC50) is 404 nM in test [1] and greater than 10000 nM in test [2].

Take `Cc1cc([C@@H](C)Nc2ccccc2C(=O)O)c2nc(N3CCN(c4cccc(C#N)c4)C[C@@H]3C)c(C)c(=O)n2c1` [Example 11-86, 2-(((R)-1-(2-((S)-4-(3-cyanophenyl)-2-methylpiperazin-1-yl)-3,7-dimethyl-4-oxo-4H-pyrido[1,2-a]pyrimidin-9-yl)ethyl)amino)benzoic acid]: the IC50 in test [1] is 146 nM; in test [2], greater than 10000 nM.

As for `Cc1cc([C@@H](C)Nc2ccccc2C(=O)O)c2nc(N3CCN(c4cccc(C#N)c4)C[C@H]3C)c(C)c(=O)n2c1` [Example 11-87, 2-(((R)-1-(2-((R)-4-(3-cyanophenyl)-2-methylpiperazin-1-yl)-3,7-dimethyl-4-oxo-4H-pyrido[1,2-a]pyrimidin-9-yl)ethyl)amino)benzoic acid], the IC50 is 156 nM in test [1] and greater than 10000 nM in test [2].

As for `Cc1cc([C@@H](C)Nc2ccc(F)c(F)c2C(=O)O)c2nc(N3CCC(F)(F)CC3)c(C#N)c(=O)n2c1` [Example 11-88, (R)-6-((1-(3-cyano-2-(4,4-difluoropiperidin-1-yl)-7-methyl-4-oxo-4H-pyrido[1,2-a]pyrimidin-9-yl)ethyl)amino)-2,3-difluorobenzoic acid], the 50% inhibitory concentration (IC50) in test [1] is 1650 nM; in test [2], greater than 10000 nM.

As for `Cc1cc([C@@H](C)Nc2ccc(Cl)c(F)c2C(=O)O)c2nc(N3CCC(F)(F)CC3)c(C#N)c(=O)n2c1` [Example 11-89, (R)-3-chloro-6-((1-(3-cyano-2-(4,4-difluoropiperidin-1-yl)-7-methyl-4-oxo-4H-pyrido[1,2-a]pyrimidin-9-yl)ethyl)amino)-2-fluorobenzoic acid], the concentration for half-maximal inhibition (IC50) was 3150 nM in test [1] and greater than 10000 nM in test [2].

On to `Cc1cc([C@@H](C)Nc2ccc(F)cc2C(=O)O)c2nc(N3CCC(F)(F)CC3)c(C#N)c(=O)n2c1` [Example 11-90, (R)-2-((1-(3-cyano-2-(4,4-difluoropiperidin-1-yl)-7-methyl-4-oxo-4H-pyrido[1,2-a]pyrimidin-9-yl)ethyl)amino)-5-fluorobenzoic acid], for which the IC50 is 306 nM in test [1] and greater than 10000 nM in test [2].
